Data from PubChem BioAssay AID248 (DTP/NCI, 2004).
Several values for one entry are separate records, joined by “and”; a condition that tells them apart may be missing. Equal entries are not always repeated. Inconclusive results and toxic doses are left out.

System: L1210 leukemia ip in BDF1 mice, survival T/C
Test: NCI In Vivo Anticancer Drug Screen. Data for tumor model L1210 Leukemia (intraperitoneal) in B6D2F1 (BDF1) mice
Settings: endpoint: mean survival time, higher = longer survival
Outline: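 Ratio derived from survival: compound-dosed mice over vehicle-dosed mice, all bearing a transplantable tumor.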

[1] = dose: 100.0 mg/kg/injection, schedule: Q01DX009 (ip), vehicle: Klucel (hydroxypropylcellulose) (HPC)
[2] = dose: 200.0 mg/kg/injection, schedule: Q01DX009 (ip), vehicle: Klucel (hydroxypropylcellulose) (HPC)
[3] = dose: 400.0 mg/kg/injection, schedule: Q01DX009 (ip), vehicle: Klucel (hydroxypropylcellulose) (HPC)
[4] = dose: 50.0 mg/kg/injection, schedule: Q01DX001 (ip), vehicle: carboxymethylcellulose (CMC)
[5] = dose: 100.0 mg/kg/injection, schedule: Q01DX001 (ip), vehicle: carboxymethylcellulose (CMC)
[6] = dose: 200.0 mg/kg/injection, schedule: Q01DX001 (ip), vehicle: carboxymethylcellulose (CMC)
[7] = dose: 100.0 mg/kg/injection, schedule: Q01DX001 (ip), vehicle: steriod suspending solution
[8] = dose: 400.0 mg/kg/injection, schedule: Q01DX001 (ip), vehicle: steriod suspending solution
[9] = dose: 100.0 mg/kg/injection, schedule: Q04DX003 (ip), vehicle: Klucel (hydroxypropylcellulose) (HPC)
[10] = dose: 200.0 mg/kg/injection, schedule: Q04DX003 (ip), vehicle: Klucel (hydroxypropylcellulose) (HPC)
[11] = dose: 400.0 mg/kg/injection, schedule: Q04DX003 (ip), vehicle: Klucel (hydroxypropylcellulose) (HPC)
[12] = dose: 25.0 mg/kg/injection, schedule: Q01DX009 (ip), vehicle: saline with Tween-80
[13] = dose: 50.0 mg/kg/injection, schedule: Q01DX009 (ip), vehicle: saline with Tween-80
[14] = dose: 100.0 mg/kg/injection, schedule: Q01DX009 (ip), vehicle: saline with Tween-80
[15] = dose: 400.0 mg/kg/injection, schedule: Q01DX009 (ip), vehicle: saline with Tween-80
[16] = dose: 400.0 mg/kg/injection, schedule: Q01DX001 (ip), vehicle: carboxymethylcellulose (CMC)

CC(C)(C)NS(=O)(=O)/C=C/c1ccccc1
T/C (dose: 50.0 mg/kg/injection, schedule: Q01DX009 (ip), vehicle: acetone): 95 % of control | T/C (dose: 100.0 mg/kg/injection, schedule: Q01DX001 (ip), vehicle: acetone): 101 % of control | T/C (dose: 100.0 mg/kg/injection, schedule: Q01DX009 (ip), vehicle: acetone): 93 % of control | T/C (dose: 200.0 mg/kg/injection, schedule: Q01DX001 (ip), vehicle: acetone): 102 % of control | T/C (dose: 200.0 mg/kg/injection, schedule: Q01DX009 (ip), vehicle: acetone): 92 % of control | T/C (dose: 400.0 mg/kg/injection, schedule: Q01DX001 (ip), vehicle: acetone): 96 % of control

O=C(Nc1ccccc1F)Oc1ccc2ccccc2c1
T/C [1]: 106 % of control | T/C [2]: 107 % of control | T/C [3]: 103 % of control

CSc1ncnc2c1ncn2C1CCCC1
T/C [4]: 116 % of control | T/C [5]: 104 % of control | T/C [6]: 107 % of control

N#CC1(C(O)c2ccccc2)C=Cc2ccccc2N1C(=O)c1ccccc1 (configuration not stated)
T/C [7]: 98 % of control | T/C [8]: 95 % of control

CC12CCCCC1C=CC(=O)C2 (configuration not stated)
T/C (dose: 75.0 mg/kg/injection, schedule: Q01DX001 (ip), vehicle: other): 89 % of control | T/C (dose: 150.0 mg/kg/injection, schedule: Q01DX001 (ip), vehicle: other): 94 % of control

O=[N+]([O-])c1ccc2nc(NCCCO)c3ccccc3c2c1
T/C [9]: 120 % of control | T/C [10]: 124 % of control | T/C [11]: 96 % of control

CCc1ccc(N2C(N)=NC(N)=NC2(C)C)cc1
T/C (dose: 25.0 mg/kg/injection, schedule: Q01DX001 (ip), vehicle: saline): 104 % of control | T/C (dose: 50.0 mg/kg/injection, schedule: Q01DX001 (ip), vehicle: saline): 100 % of control | T/C (dose: 100.0 mg/kg/injection, schedule: Q01DX001 (ip), vehicle: saline): 105 % of control and 110 % of control

C[n+]1ccc(NC(=O)c2ccc(NC(=O)c3cccc(C(=O)Nc4ccc(C(=O)Nc5cc[n+](C)cc5)cc4)c3)cc2)cc1
T/C (dose: 1.25 mg/kg/injection, schedule: Q01DX Z (ip), vehicle: carboxymethylcellulose (CMC)): 108 % of control | T/C (dose: 2.5 mg/kg/injection, schedule: Q01DX Z (ip), vehicle: carboxymethylcellulose (CMC)): 113 % of control | T/C (dose: 5.0 mg/kg/injection, schedule: Q01DX Z (ip), vehicle: carboxymethylcellulose (CMC)): 108 % of control | T/C (dose: 10.0 mg/kg/injection, schedule: Q01DX Z (ip), vehicle: carboxymethylcellulose (CMC)): 111 % of control | T/C (dose: 20.0 mg/kg/injection, schedule: Q01DX Z (ip), vehicle: carboxymethylcellulose (CMC)): 161 % of control | T/C (dose: 40.0 mg/kg/injection, schedule: Q01DX Z (ip), vehicle: carboxymethylcellulose (CMC)): 166 % of control | T/C (dose: 62.0 mg/kg/injection, schedule: Q01DX Z (oral), vehicle: carboxymethylcellulose (CMC)): 97 % of control | T/C (dose: 80.0 mg/kg/injection, schedule: Q01DX Z (ip), vehicle: carboxymethylcellulose (CMC)): 188 % of control | T/C (dose: 125.0 mg/kg/injection, schedule: Q01DX Z (oral), vehicle: carboxymethylcellulose (CMC)): 98 % of control | T/C (dose: 160.0 mg/kg/injection, schedule: Q01DX Z (ip), vehicle: carboxymethylcellulose (CMC)): 153 % of control | T/C (dose: 250.0 mg/kg/injection, schedule: Q01DX Z (oral), vehicle: carboxymethylcellulose (CMC)): 112 % of control | T/C (dose: 500.0 mg/kg/injection, schedule: Q01DX Z (oral), vehicle: carboxymethylcellulose (CMC)): 108 % of control

O=C(NCCNC(c1ccccc1)C(NCCNC(=O)c1ccccc1)c1ccccc1)c1ccccc1 (configuration not stated)
T/C [12]: 94 % of control | T/C [13]: 89 % of control | T/C [14]: 97 % of control and 89 % of control | T/C [15]: 89 % of control

CC(=O)N1c2ccccc2Sc2ccc(C(=O)CCl)cc21
T/C [4]: 96 % of control | T/C [5]: 98 % of control | T/C [6]: 96 % of control | T/C [16]: 98 % of control

OC1COC(Cl)C(O)C1O (configuration not stated)
T/C [12]: 96 % of control | T/C [13]: 97 % of control | T/C [14]: 94 % of control | T/C (dose: 100.0 mg/kg/injection, schedule: Q04DX003 (ip), vehicle: saline with Tween-80): 91 % of control | T/C (dose: 200.0 mg/kg/injection, schedule: Q04DX003 (ip), vehicle: saline with Tween-80): 88 % of control

ClC1=C2C=CC=CC2C(Cl)(c2ccccc2)C2C1=C(Cl)c1ccccc1C2(Cl)c1ccccc1 (configuration not stated)
T/C (dose: 75.0 mg/kg/injection, schedule: Q01DX001 (ip), vehicle: saline): 95 % of control | T/C (dose: 150.0 mg/kg/injection, schedule: Q01DX001 (ip), vehicle: saline): 97 % of control | T/C (dose: 300.0 mg/kg/injection, schedule: Q01DX001 (ip), vehicle: saline): 90 % of control

Clc1ccc(/C=C/c2cccc(/C=C/c3ccc(Cl)cc3)n2)cc1
T/C [9]: 96 % of control | T/C [10]: 97 % of control | T/C [11]: 97 % of control

CCC(Cl)COP(=O)(OCC(Cl)CC)C(CC)CCl (configuration not stated)
T/C [5]: 93 % of control | T/C (dose: 100.0 mg/kg/injection, schedule: Q01DX009 (ip), vehicle: carboxymethylcellulose (CMC)): 98 % of control and 91 % of control | T/C (dose: 100.0 mg/kg/injection, schedule: Q04DX002 (ip), vehicle: carboxymethylcellulose (CMC)): 94 % of control and 95 % of control | T/C (dose: 100.0 mg/kg/injection, schedule: Q04DX003 (ip), vehicle: carboxymethylcellulose (CMC)): 101 % of control | T/C [6]: 96 % of control | T/C (dose: 200.0 mg/kg/injection, schedule: Q01DX009 (ip), vehicle: carboxymethylcellulose (CMC)): 94 % of control and 103 % of control | T/C (dose: 200.0 mg/kg/injection, schedule: Q04DX002 (ip), vehicle: carboxymethylcellulose (CMC)): 95 % of control and 102 % of control | T/C (dose: 200.0 mg/kg/injection, schedule: Q04DX003 (ip), vehicle: carboxymethylcellulose (CMC)): 96 % of control | T/C [16]: 96 % of control | T/C (dose: 400.0 mg/kg/injection, schedule: Q01DX009 (ip), vehicle: carboxymethylcellulose (CMC)): 105 % of control and 106 % of control | T/C (dose: 400.0 mg/kg/injection, schedule: Q04DX002 (ip), vehicle: carboxymethylcellulose (CMC)): 94 % of control and 95 % of control | T/C (dose: 400.0 mg/kg/injection, schedule: Q04DX003 (ip), vehicle: carboxymethylcellulose (CMC)): 98 % of control

CCCCNCCC(=O)c1ccc(Cl)cc1
T/C (dose: 6.25 mg/kg/injection, schedule: Q01DX009 (ip), vehicle: saline with Tween-80): 98 % of control | T/C (dose: 12.5 mg/kg/injection, schedule: Q01DX009 (ip), vehicle: saline with Tween-80): 100 % of control | T/C [12]: 94 % of control

CC(C)C(N=Cc1cc(Cl)ccc1O)C(=O)O (configuration not stated)
T/C [7]: 105 % of control | T/C (dose: 200.0 mg/kg/injection, schedule: Q01DX001 (ip), vehicle: steriod suspending solution): 94 % of control | T/C [8]: 104 % of control

CCCCc1c(C)[nH]c(=S)[nH]c1=O
T/C [14]: 95 % of control | T/C (dose: 200.0 mg/kg/injection, schedule: Q01DX009 (ip), vehicle: saline with Tween-80): 100 % of control | T/C [15]: 91 % of control

Nc1ccc(S(=O)(=O)c2cc(O)c3ccccc3c2O)cc1
T/C (dose: 12.5 mg/kg/injection, schedule: Q01DX009 (ip), vehicle: saline): 91 % of control | T/C (dose: 12.5 mg/kg/injection, schedule: Q04DX003 (ip), vehicle: Klucel (hydroxypropylcellulose) (HPC)): 103 % of control | T/C (dose: 25.0 mg/kg/injection, schedule: Q01DX009 (ip), vehicle: saline): 91 % of control | T/C (dose: 25.0 mg/kg/injection, schedule: Q04DX003 (ip), vehicle: Klucel (hydroxypropylcellulose) (HPC)): 102 % of control | T/C (dose: 50.0 mg/kg/injection, schedule: Q04DX003 (ip), vehicle: Klucel (hydroxypropylcellulose) (HPC)): 92 % of control

O=C(c1ccc(-c2ccccc2)cc1)C1CC1
T/C [1]: 97 % of control | T/C [2]: 97 % of control | T/C [3]: 91 % of control

O=c1[nH]c(=S)nc2nc[nH]n12
T/C (dose: 100.0 mg/kg/injection, schedule: Q04DX003 (ip), vehicle: saline): 97 % of control | T/C (dose: 200.0 mg/kg/injection, schedule: Q04DX003 (ip), vehicle: saline): 102 % of control | T/C (dose: 400.0 mg/kg/injection, schedule: Q04DX003 (ip), vehicle: saline): 105 % of control

COC1(C)C(=O)Oc2c1c1ccccc1c1ccccc21 (configuration not stated)
T/C (dose: 75.0 mg/kg/injection, schedule: Q01DX001 (ip), vehicle: carboxymethylcellulose (CMC)): 94 % of control | T/C (dose: 150.0 mg/kg/injection, schedule: Q01DX001 (ip), vehicle: carboxymethylcellulose (CMC)): 89 % of control
